Entries after “also recorded” stand apart in the source; their conditions may differ.
Legend:
[1] = system: rats subjected to SAO shock; assay: Splanchnic arterial occlusion (SAO) shock with Futhan pretreatment; assay type: in vivo, rat
From the text: Rats randomly selected were weighed and anesthetized, and arterial and venous catheters were inserted which were used for blood pressure measurements and anesthesia, respectively. […] At the termination of the experiments arterial blood was drawn for determination of plasma peroxide concentration using a peroxide electrode measurement technique.
Male Wistar rats (250-320 g) were randomly divided into SAO shock (n=7) and SAO shock sham groups (n=6). Animals were cannulated via the femoral arteries and vein under general anesthesia using pentobarbital (50 mg/kg i.m.). No heparin was injected other than that needed to ensure open catheter lines (10U/ml Plasma-Lyte). One femoral artery was connected up to monitor continuous mean arterial pressure (MAP), while the other was used for the collection of blood samples. […] MAP and heart rate were recorded.

[2] = system: isolated naive human neutrophils; assay: Pseudopod formation test: protease inhibitors against pancreatic homogenate-induced neutrophil activation; assay type: cell-based
Experimental: For the pseudopod assay, venous blood is collected in heparinized tubes from healthy human volunteers and put on ice. It is important that heparin and not EDTA ([…]) be used as an anticoagulant, as the calcium-chelating properties of EDTA can affect neutrophil activation. […] Other chemicals for the Krebs-Henseleit buffer are from Fisher Scientific, Fair Lawn, N.J. The resuspended cells are then gently layered onto 2.5 ml of a 55% isotonic Percoll (Sigmal Chemical Company) solution and 2.5 ml of a 74% isotonic Percoll solution in deionized water. The suspension is centrifuged for 15 minutes at 600 G and the middle granulocyte layer is removed and resuspended in PBS to achieve a concentration of 10^6 neutrophils/ml. 100 μl aliquots of suspended neutrophils are added to 100 μl of test plasma or activating agent. This mixture is mixed and then incubated for 10 minutes at 27° C. After incubation 100 μl of 3% glutaraldehyde (Fisher Scientific) is added to stop the reaction. 100 μl of crystal violet in phosphate (pH: 7.4) buffer is then added to stain leukocyte nuclei on wet mount preparations. Freely suspended neutrophils with pseudopodia are identified by their segmented nuclei and the presence of cytoplasmic granules. One hundred neutrophils are counted. Cells with pseudopod projection greater than about 1 um are considered positive.
Rat homogenate was collected as described in detail in Example 5. Briefly, male Wistar rats (250-350 gm) were housed in a controlled environment and maintained on a standard pellet diet for at least three days before initiation of experimental procedures. Animals were cannulated via the femoral arteries and vein under general anesthesia using pentobarbital (50 mg/kg i.m.). The rats were exsanguinated and the heart, liver, spleen, small intestine, and pancreas removed. The organs were immediately washed and cleaned in cold 0.25 M sucrose solution. Then, the cleaned organs were vigorously homogenized in Krebs-Henseleit solution ([…]). Aliquots were filtered by centrifugation at 500 G for 10 min. Pancreatic homogenates were incubated for 2.5 hours at 38° C., stirred frequently. Incubated pancreatic homogenate as well as controls were tested against naive human donor neutrophils for pseudopod formation as described in Example 2.
To determine whether or not neutrophil activation by pancreatic homogenate is protease dependent, the pseudopod formation test was repeated by preincubation of isolated neutrophils with various protease inhibitors (50 μl) for 10 minutes followed by addition of pancreas homogenate (50 μl) and further incubation for 10 minutes. […] All protease inhibitors were the gift of Dr. Tony E. Hugli of The Scripps Clinic and Research Institute, with the exception of Complete™, an all-purpose protease inhibitor purchased from Boehringer Mannheim, Indianapolis, Ind. One of the components of Complete™ is EDTA (ethylenediaminetetra-acetic acid), a standard anti-coagulant and divalent cation chelator.
To determine whether the protease inhibitors were acting on the pancreatic homogenate or the neutrophils themselves, a new set of neutrophil pseudopod experiments was carried out. […] Appropriate controls were recorded as well as a positive control (10^−7 M fMLP) to determine the washed cells' ability to respond to stimuli. Formyl-methionyl-leucyl-phenylalanine (fMLP) was obtained from Sigma Chemical Company, St. Louis, Mo.

[3] = system: neutrophils; conditions: cited from earlier work
[4] = system: human neutrophils; assay: Neutrophil response to fluid shear-stress in vitro; assay type: cell-based
Experimental: In these experiments the shear-stress was kept sufficiently low (˜1 dyn/cm2) to avoid significant viscoelastic cell deformation. Fresh leukocytes from pin-pricked blood of healthy volunteers were collected in Vacutainer tubes (sodium heparin pre-treated, Becton Dickinson, Franklin Lakes, N.J.). The red blood cells were allowed to sediment at room temperature for about 30 minutes. The supernatant mixture of 1 part platelets and leukocytes was resuspended in 20 parts Plasma Lyte (Baxter Healthcare Corp., Deerfield, Ill.). Neutrophils, monocytes and lymphocytes were identified by their morphology (125× magnification). All experiments were performed within four hours following blood collection.
100 μl of the cell preparation was deposited into a small chamber with a transparent bottom on an inverted microscope (Leitz Diavert, Germany) with a 50× objective. […]
Filmed neutrophils presented various responses to shear-stress. In order to quantify the results neutrophil response was divided into three categories: […]

SMILES: CS(=O)(=O)O.CS(=O)(=O)O.N=C(N)Nc1ccc(C(=O)Oc2ccc3cc(C(=N)N)ccc3c2)cc1 [Futhan, 6-amidino-2-naphthyl p-guanidinobenzoate dimethanesulfonate]
- MAP and survival time, small bolus regimen ([1]; 0.05 ml bolus every 5 minutes, 1, 3.3, 10, 20 mg Futhan/kg body wt, pretreatment 30 or 60 min): uniformly unable to restore MAP or increase survival times
- blood pressure effect of Futhan injection ([1]; 0.05 ml doses): transient hypotension
- mean arterial pressure after removal of arterial clamps ([1]; Futhan 3.3 mg/kg body wt/hour i.v. infusion pump, 60 min pretreatment, vs saline): significant reduction in the fall of blood pressure
- survival / mortality after SAO shock ([1]; Futhan 3.3 mg/kg body wt/hour infusion, 60 min pretreatment, vs saline controls, dimethanesulfonate): significant increase in survival; also recorded: prevented mortality
- circulating plasma peroxide after SAO shock ([1]; Futhan 3.3 mg/kg body wt/hour infusion, vs control animals): significantly lower levels of circulating peroxide production
- plasma peroxide formation after SAO shock, small bolus regimen ([1]; initial experiments, bolus injections): ineffective
- percent neutrophil activation, Wash group ([2]; neutrophils incubated 10 min with Futhan 0.1 mg/ml, washed two times, then pancreatic homogenate 10 min): 53.5±31%
- percent neutrophil pseudopod formation (activation) by rat pancreatic homogenate in presence of protease inhibitor ([2]; neutrophils preincubated 10 min with inhibitor (PMSF 1 mM; Complete 1 tablet/20 ml; Benzamidine 1150 μM; Futhan 0.1 mg/ml; aprotinin 20 μM), then homogenate 10 min, homogenate alone 85.1±11.5%): 30.3±11.8%
- inhibition of pancreatic homogenate-induced neutrophil activation (in words) ([2]; pseudopod formation, rat pancreatic homogenate, dimethanesulfonate): abolished pancreatic homogenate-induced activation; also recorded: dose-dependent inhibition
- percent neutrophil activation, Inhibitor group ([2]; washed neutrophils incubated with combined Futhan 0.1 mg/ml and pancreatic homogenate): 51.5±34%
- free radical scavenging [3]: does not possess any free radical scavenging effects
- zymosan-induced chemiluminescence activation by neutrophils ([3]; in vitro): inhibited zymosan-induced chemiluminescence activation by neutrophils
- effect of Futhan on neutrophil activation in shear-stress test ([4]; 10 μl Futhan 0.05 and 0.13 mg/ml in 5% glucose + 10 μl pig pancreatic homogenate + 80 μl cells): slightly pro-inflammatory effect
- complete response to shear stress of Futhan-treated neutrophils ([4]; Futhan 0.05 and 0.13 mg/ml + pig pancreatic homogenate): no Futhan-treated neutrophil exhibited a complete response

From patent US20030190368A1, “METHODS OF DIAGNOSIS AND TRIAGE USING CELL ACTIVATION MEASURES” (priority 1998, published 2003)
